These compounds were tested on AMPK (assay: AMPK activation assay (enzyme-linked immunosorbent assay)).
Type: cell-based
Outline: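 Activation by each compound is measured using a conventional commercial immunoassay kit.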

Compound | EC50
O=C(Nc1ccc(-c2cccnc2)cc1)c1ccc(C(=O)N2CCN(Cc3ccc(F)cc3)CC2)cn1 [Compound 61, 5-(4-(4-fluorobenzyl)piperazine-1-carbonyl)-N-(4-(pyridine-3-yl)phenyl)picolinamide] | < 0.5 µM
N#Cc1ccc(CN2CCC(NC(=O)c3ccc(C(=O)N4CCC(Oc5ccc([N+](=O)[O-])cc5)CC4)nc3)CC2)cc1 [Compound 363, N-(1-(4-cyanobenzyl)piperidin-4-yl)-6-(4-(4-nitrophenoxy)piperidine-1-carbonyl)nicotinamide] | < 0.5 µM
O=C(NCc1ccccc1)c1ccc(C(=O)N2CCN(Cc3ccc(F)cc3)CC2)cn1 [Compound 115, N-benzyl-5-(4-(4-fluorobenzyl)piperazine-1-carbonyl)picolinamide] | 5 to 10 µM
CN(C)C(=O)c1ccc(OC2CCN(C(=O)c3ccc(C(=O)NC4CCN(Cc5ccc(C#N)cc5)CC4)nc3)CC2)cc1 [Compound 357, N-(1-(4-cyanobenzyl)piperidin-4-yl)-5-(4-(4-(dimethylcarbamoyl)phenoxy)piperidine-1-carbonyl)picolinamide] | < 0.5 µM
N#Cc1ccc(OC2CCN(C(=O)c3ccc(C(=O)NC4CCNCC4)cn3)CC2)cc1 [Compound 335, 6-(4-(4-cyanophenoxy)piperidine-1-carbonyl)-N-(piperidin-4-yl) nicotinamide] | > 10 µM
O=C(Nc1ccc(-c2ccc(C(F)(F)F)cc2)cc1)c1ccc(C(=O)N2CCN(Cc3ccc(F)cc3)CC2)cn1 [Compound 25, 5-(4-(4-fluorobenzyl)piperazine-1-carbonyl)-N-(4-(4-trifluoromethylphenyl)phenyl)picolinamide] | < 0.5 µM
N#Cc1ccc(CN2CCC(NC(=O)c3ccc(C(=O)N4CCN(S(=O)(=O)c5ccc(F)cc5)CC4)cn3)CC2)cc1 [Compound 78, N-(1-(4-cyanobenzyl)piperidin-4-yl)-5-(4-(4-fluorophenylsulfonyl)piperazine-1-carbonyl)picolinamide] | < 0.5 µM
O=C(NC1CCN(Cc2ccccc2)CC1)c1ccc(Nc2cccc(-c3ccccc3)c2)cn1 [Compound 114, N-(1-benzylpiperidin-4-yl)-5-(biphenyl-3-ylamino)picolinamide] | 1 to 5 µM
N#Cc1ccc(CN2CCC(NC(=O)c3ccc(C(=O)N4CCN(c5ccc(S(=O)(=O)C(F)(F)F)cc5)CC4)cn3)CC2)cc1 [Compound 257, N-(1-(4-cyanobenzyl)piperidin-4-yl)-5-(4-(4-(trifluoromethylsulfonyl)phenyl)piperazine-1-carbonyl)picolinamide] | < 0.5 µM
N#Cc1ccc(CN2CCC(NC(=O)c3ccc(C(=O)N4CCC(Oc5ccc(F)c(F)c5)CC4)cn3)CC2)cc1 [Compound 158, N-(1-(4-cyanobenzyl)piperidin-4-yl)-5-(4-(3,4-difluorophenoxy)piperidine-1-carbonyl)picolinamide] | < 0.5 µM
O=C(Nc1ccc(Oc2ccc(F)cc2)nc1)c1ccc(C(=O)N2CCC(F)(C(=O)c3ccc(F)cc3)CC2)cn1 [Compound 67, 5-(4-(4-fluoro-4-fluorobenzoyl)piperidine-1-carbonyl)-N-(6-(4-fluorophenoxy)pyridin-3-yl)picolinamide] | < 0.5 µM
O=C(NC1CCN(Cc2ccc(N3CCCC3)cc2)CC1)c1ccc(C(=O)N2CCC(Oc3ccc(S(=O)(=O)C4CC4)cc3)CC2)nc1 [Compound 248, 6-(4-(4-(cyclopropylsulfonyl)phenoxy)piperidine-1-carbonyl)-N-(1-(4-(pyrrolidin-1-yl)benzyl)piperidin-4-yl)nicotinamide] | < 0.5 µM
CC(=O)c1ccc(OC2CCN(C(=O)c3ccc(C(=O)Nc4ccc(Oc5ccc(F)cc5)nc4)nc3)CC2)cc1 [Compound 359, 5-(4-(4-acetylphenoxy)piperidine-1-carbonyl)-N-(6-(4-fluorophenoxy)pyridin-3-yl)picolinamide] | < 0.5 µM
N#Cc1ccc(CN2CCC(NC(=O)c3ccc(NC4CCN(c5ccccc5)CC4)cn3)CC2)cc1 [Compound 126, N-(1-(4-cyanobenzyl)piperidin-4-yl)-5-(1-phenylpiperidin-4-ylamino)picolinamide] | < 0.5 µM
COc1ccc(C(=O)C2CCN(C(=O)c3ccc(C(=O)NC4CCN(Cc5ccc(C#N)cc5)CC4(F)F)cn3)CC2)cc1 (centres unmarked) [Compound 498, N-(1-(4-cyanobenzyl)-3,3-difluoropiperidin-4-yl)-6-(4-(4-methoxybenzoyl)piperidine-1-carbonyl)nicotinamide] | < 0.5 µM
CS(=O)(=O)c1ccc(OC2CCN(C(=O)c3ccc(C(=O)NC4CCN(Cc5ccc(C#N)cc5)CC4)cn3)CC2)cc1 [Compound 397, N-(1-(4-cyanobenzyl)piperidin-4-yl)-6-(4-(4-(methylsulfonyl)phenoxy)piperidine-1-carbonyl)nicotinamide] | < 0.5 µM
N#Cc1ccc(OC2CCN(C(=O)c3ccc(C(=O)N[C@H]4CC[C@@H](Oc5ccc(C(F)(F)F)cc5)CC4)nc3)CC2)cc1 [Compound 193, 5-(4-(4-cyanophenoxy)piperidine-1-carbonyl)-N-((cis)-4-(4-(trifluoromethyl)phenoxy)cyclohexyl) picolinamide] | < 0.5 µM
COc1ccc(OC2CCN(C(=O)c3ccc(C(=O)NC4CCN(Cc5ccc(C#N)cc5)CC4)cn3)CC2)c(NS(C)(=O)=O)c1 [Compound 389, N-(1-(4-cyanobenzyl)piperidin-4-yl)-6-(4-(4-methoxy-2-(methylsulfonamido)phenoxy)piperidine-1-carbonyl)nicotinamide] | 1 to 5 µM
O=C(Nc1ccc(Oc2ccc(F)cc2)nc1)c1ccc(C(=O)N2CCC(C(=O)c3ccc(F)c(F)c3)CC2)cn1 [Compound 330, 5-(4-(3,4-difluorobenzoyl)piperidine-1-carbonyl)-N-(6-(4-fluorophenoxy)pyridin-3-yl)picolinamide] | 0.5 to 1 µM
N#Cc1ccc(CN2CCC(NC(=O)c3ccc(Nc4ccc(Cc5ccccc5)cc4)cn3)CC2)cc1 [Compound 108, 5-(4-benzylphenylamino)-N-(1-(4-cyanobenzyl)piperidin-4-yl)picolinamide] | 0.5 to 1 µM
COc1ccc(C(=O)C2CCN(C(=O)c3ncc(C(=O)NC4CCN(Cc5ccc(C#N)cc5)CC4)cc3CCCNC(=O)OC(C)(C)C)CC2)cc1 [Compound 416, tert-butyl 3-(5-(1-(4-cyanobenzyl)piperidin-4-ylcarbamoyl)-2-(4-(4-methoxybenzoyl)piperidine-1-carbonyl)pyridin-3-yl)propylcarbamate] | 1 to 5 µM
N#Cc1ccc(CN2CCC(NC(=O)c3ccc(C(=O)N4CCN(c5ccc(C(=O)C(F)(F)F)cc5)CC4)cn3)CC2)cc1 [Compound 263, N-(1-(4-cyanobenzyl)piperidin-4-yl)-5-(4-(4-(2,2,2-trifluoroacetyl)phenyl)piperazine-1-carbonyl)picolinamide] | < 0.5 µM

The remaining lines, values ahead:

EC50 | Compound
1 to 5 µM | CS(=O)(=O)c1ccc(OC2CCN(C(=O)c3ccc(C(=O)NC4CCN(Cc5ccc(F)cc5)CC4)cn3)CC2)cc1 [Compound 396, N-(1-(4-fluorobenzyl)piperidin-4-yl)-6-(4-(4-(methylsulfonyl)phenoxy)piperidine-1-carbonyl)nicotinamide]
< 0.5 µM | N#Cc1ccc(CN2CCC(NC(=O)c3ccc(C(=O)N4CCC(C(=O)c5ccc(N6CCCC6)cc5)CC4)nc3)CC2)cc1 [Compound 377, N-(1-(4-cyanobenzyl)piperidin-4-yl)-6-(4-(4-(pyrrolidin-1-yl)benzoyl)piperidine-1-carbonyl)nicotinamide]
< 0.5 µM | CN(C)c1ccc(OC2CCN(C(=O)c3ccc(C(=O)NC4CCN(Cc5ccc(C#N)cc5)CC4)cn3)CC2)cc1 [Compound 370, N-(1-(4-cyanobenzyl)piperidin-4-yl)-6-(4-(4-(dimethylamino)phenoxy)piperidine-1-carbonyl)nicotinamide]
< 0.5 µM | N#Cc1ccc(CN2CCC(NC(=O)c3ccc(C(=O)N4CCC(Oc5ccc(SC(F)(F)F)cc5)CC4)nn3)CC2)cc1 [Compound 436, N-(1-(4-cyanobenzyl)piperidin-4-yl)-6-(4-(4-(trifluoromethylthio)phenoxy)piperidine-1-carbonyl)pyridazine-3-carboxamide]
1 to 5 µM | N#Cc1ccc(CN2CCC(NC(=O)c3ccc(C(=O)N4CCCCC4Cc4ccc(F)cc4)cn3)CC2)cc1 (centres unmarked) [Compound 153, N-(1-(4-cyanobenzyl)piperidin-4-yl)-5-(2-(4-fluorobenzyl)piperidine-1-carbonyl)picolinamide]
< 0.5 µM | COc1ccc(C(=O)C2CCN(C(=O)c3ccc(C(=O)N[C@H]4CC[C@@H](Oc5ccc(F)cc5)CC4)cn3)CC2)cc1 [Compound 316, N-((cis)-4-(4-fluorophenoxy)cyclohexyl)-6-(4-(4-methoxybenzoyl)piperidine-1-carbonyl)nicotinamide]
1 to 5 µM | COc1ccc(C(=O)C2CCN(C(=O)c3ccc(C(=O)NC4CCN(Cc5ccc(C(=O)N(C)C)cc5)CC4)cn3)CC2)cc1 [Compound 490, N-(1-(4-(dimethylcarbamoyl)benzyl)piperidin-4-yl)-6-(4-(4-methoxybenzoyl)piperidine-1-carbonyl)nicotinamide]
< 0.5 µM | COc1ccc(CN2CCC(NC(=O)c3ccc(C(=O)N4CCC(C(=O)c5ccc(F)c(F)c5)CC4)cn3)CC2)cc1 [Compound 329, 5-(4-(3,4-difluorobenzoyl)piperidine-1-carbonyl)-N-(1-(4-methoxybenzyl)piperidin-4-yl) picolinamide]
1 to 5 µM | N#Cc1ccc(CN2CCC(NC(=O)c3ncc(C(=O)N4CCN(Cc5ccc(F)cc5)CC4)cc3C#CCNC(=O)COCCOCCOCCOCCNC(=O)CCCC[C@@H]3SC[C@@H]4NC(=O)N[C@@H]43)CC2)cc1 [Compound 159, N-(1-(4-cyanobenzyl)piperidin-4-yl)-3-(5,20-dioxo-24-((3aS,4S,6aR)-2-oxohexahydro-1H-thieno[3,4-d]imidazol-4-yl)-7,10,13,16-tetraoxa-4,19-diazatetracos-1-ynyl)-5-(4-(4-fluorobenzyl)piperazine-1-carbonyl)picolinamide]
< 0.5 µM | N#Cc1ccc(CN2CC[C@@H](NC(=O)c3ccc(C(=O)N4CCC(Oc5ccc(S(=O)(=O)C(F)(F)F)cc5)CC4)nc3)[C@H](F)C2)cc1 (relative stereo) [Compound 451, N-((trans)-1-(4-cyanobenzyl)-3-fluoropiperidin-4-yl)-6-(4-(4-(trifluoromethylsulfonyl)phenoxy)piperidine-1-carbonyl)nicotinamide]
